Data from PMC9078697, “Discovery and preliminary SAR of 14-aryloxy-andrographolide derivatives as antibacterial agents with immunosuppressant activity” (RSC Advances, 2018).

Assays:
Format in all cases: cell-based
S. aureus = assay: Bacteriostatic screening (growth, OD630) against S. aureus; settings: for inhibition rate SA (symbol /): at 250 μM of tested compound
Protocol: (§1) The strategy in this study was to submit these synthesized compounds to a preliminary screening test against E. coli, S. aureus and E. faecalis (ciprofloxacin was used as a reference compound; see Table 1). […] The tested compound or ciprofloxacin (positive drug) was dissolved in DMSO and diluted with LB liquid medium into a stock solution containing 20% DMSO before use; the stock solution of the carrier was 20% DMSO in LB liquid medium. All the experiments, including blank controls, were performed in triplicate. Bacteriostatic screening was performed by applying a modified protocol of the National Committee on Clinical Laboratory Standards (NCCLS).[29] Briefly, E. coli, S. aureus and E. faecalis cells (American Type Culture Collection, ATCC) were grown in LB plate medium for one passage, then seeded in LB liquid medium and cultured at 37 °C for 12 h. After being diluted 1000 times, 190 μL diluted cells were aliquoted to 96-well plates; then, 10 μL stock solution of carrier or a gradient amount of the tested compound or the positive compound, ciprofloxacin, were added; the final concentration of DMSO was 1% in all wells. The blank controls contained 1% DMSO and LB medium but no bacterial cells.

E. coli = assay: Bacteriostatic screening (growth, OD630) against E. coli; settings: for inhibition rate EC (symbol /): at 250 μM of tested compound
Protocol: as §1

E. faecalis = assay: Bacteriostatic screening (growth, OD630) against E. faecalis; settings: for IC50: 24 h, IC50 generated when inhibition at 250 μM was higher than 80%
Protocol: as §1

[1] = at 250 μM of the tested compound, 250 µM
[2] = at 250 μM of the tested compound

Molecule	inhibition rate EC (symbol /) (E. coli)	IC50 (E. faecalis)	inhibition rate (%) EC (E. coli; [2])	inhibition rate (%) SA (S. aureus; [2])	further results
C=C1CCC2C(C)(CO)C(O)CCC2(C)C1CC=C1C(=O)OCC1Oc1ccc(C(=O)OCC)cc1 (stereo not drawn) [6a9, (14α)-(4′-Carboxyethyl ester)phenoxy-andrographolide]	/ (“/”represents no inhibition or lower than 10% inhibition rate at 250 μM of tested compound)	38.3 ± 5.9 µM	–	–	inhibition rate SA (symbol /) (S. aureus): / (“/”represents no inhibition or lower than 10% inhibition rate at 250 μM of tested compound)
C=C1CCC2C(C)(CO)C(O)CCC2(C)C1CC=C1C(=O)OCC1Oc1ccccc1OC (stereo not drawn) [6a12, (14α)-(2′-Methoxy)phenoxy-andrographolide]	/ (“/”represents no inhibition or lower than 10% inhibition rate at 250 μM of tested compound)	75.6 ± 17.8 µM	–	–	inhibition rate (%) SA (S. aureus; [1]): (14) %
C=C1CCC2C(C)(CO)C(O)CCC2(C)C1CC=C1C(=O)OCC1Oc1cccnc1[N+](=O)[O-] (stereo not drawn) [6a15, (14α)-(2′-Nitro-pyridinyl-3′-oxy)andrographolide]	–	56.7 ± 5.5 µM	(14) %	–	inhibition rate (%) SA (S. aureus; [1]): (13) %
C=C1CCC2C(C)(CO)C(O)CCC2(C)C1CC=C1C(=O)OCC1Oc1ccnc2ccccc12 (stereo not drawn) [6a16, (14α)-(Quinolyl-4′-oxy)andrographolide]	/ (“/”represents no inhibition or lower than 10% inhibition rate at 250 μM of tested compound)	65.8 ± 13.5 µM	–	(22) %	–
C=C1CCC2C(C)(CO)C(O)CCC2(C)C1CC=C1C(=O)OCC1Oc1ccc([N+](=O)[O-])cc1F (stereo not drawn) [6b2, (14β)-(2′-Fluoro-4′-nitro)phenoxy-andrographolide]	–	24.4 ± 3.2 µM	–	–	inhibition rate (%) SA (S. aureus; [1]): (25) %; inhibition rate (%) EC (E. coli; [1]): (42) %
C=C1CCC2C(C)(CO)C(O)CCC2(C)C1CC=C1C(=O)OCC1Oc1ccc([N+](=O)[O-])c(F)c1 (stereo not drawn) [6b4, (14β)-(3′-Fluoro-4′-nitro)phenoxy-andrographolide]	–	19.6 ± 2.7 µM	(60) %	(28) %	–
C=C1CCC2C(C)(CO)C(O)CCC2(C)C1CC=C1C(=O)OCC1Oc1ccc([N+](=O)[O-])c(OC)c1 (stereo not drawn) [6b5, (14β)-(3′-Methoxy-4′-nitro)phenoxy-andrographolide]	–	21.8 ± 2.5 µM	–	–	inhibition rate (%) SA (S. aureus; [1]): (37) %; inhibition rate (%) EC (E. coli; [1]): (23) %
C=C1CCC2C(C)(CO)C(O)CCC2(C)C1CC=C1C(=O)OCC1Oc1ccccc1[N+](=O)[O-] (stereo not drawn) [6b6, (14β)-(2′-Nitro)phenoxy-andrographolide]	–	15.9 ± 9 µM	(28) %	(12) %	–
C=C1CCC2C(C)(CO)C(O)CCC2(C)C1CC=C1C(=O)OCC1Oc1cccc([N+](=O)[O-])c1 (stereo not drawn) [6b7, (14β)-(3′-Nitro)phenoxy-andrographolide]	/ (“/”represents no inhibition or lower than 10% inhibition rate at 250 μM of tested compound)	17.8 ± 4.2 µM	–	26%	–
C=C1CCC2C(C)(CO)C(O)CCC2(C)C1CC=C1C(=O)OCC1Oc1ccccc1C(=O)OCC (stereo not drawn) [6b8, (14β)-(2′-Carboxyethyl ester)phenoxy-andrographolide]	–	89.7 ± 12 µM	(21) %	–	inhibition rate SA (symbol /) (S. aureus): / (“/”represents no inhibition or lower than 10% inhibition rate at 250 μM of tested compound)
C=C1CCC2C(C)(CO)C(O)CCC2(C)C1CC=C1C(=O)OCC1Oc1ccc(C(=O)OCC)cc1 (stereo not drawn) [6b9, (14β)-(4′-Carboxyethyl ester)phenoxy-andrographolide]	–	53.3 ± 4.1 µM	(17) %	(40) %	–
C=C1CCC2C(C)(CO)C(O)CCC2(C)C1CC=C1C(=O)OCC1Oc1ccc(C#N)cc1 (stereo not drawn) [6b10, (14β)-(4′-Cyano)phenoxy-andrographolide]	–	72.1 ± 9.4 µM	(39) %	(29) %	–
C=C1CCC2C(C)(CO)C(O)CCC2(C)C1CC=C1C(=O)OCC1Oc1ccc(OC)cc1 (stereo not drawn) [6b11, (14β)-(4′-Methoxy)phenoxy-andrographolide]	/ (“/”represents no inhibition or lower than 10% inhibition rate at 250 μM of tested compound)	–	–	–	inhibition rate SA (symbol /) (S. aureus): / (“/”represents no inhibition or lower than 10% inhibition rate at 250 μM of tested compound); inhibition rate (%) EF (E. faecalis; [2]): (17) %
C=C1CCC2C(C)(CO)C(O)CCC2(C)C1CC=C1C(=O)OCC1Oc1ccccc1OC (stereo not drawn) [6b12, (14β)-(2′-Methoxy)phenoxy-andrographolide]	–	20.8 ± 4.5 µM	(12) %	–	inhibition rate (%) SA (S. aureus; [1]): (13) %
C=C1CCC2C(C)(CO)C(O)CCC2(C)C1CC=C1C(=O)OCC1Oc1cccc(OC)c1 (stereo not drawn) [6b13, (14β)-(3′-Methoxy)phenoxy-andrographolide]	–	138 ± 5.4 µM	15%	13%	–
C=C1CCC2C(C)(CO)C(O)CCC2(C)C1CC=C1C(=O)OCC1Oc1cccc2ccccc12 (stereo not drawn) [6b14, (14β)-(Naphthyl-1′-oxy)andrographolide]	–	–	(35) %	(18) %	inhibition rate (%) EF (E. faecalis; [2]): (50) %
C=C1CCC2C(C)(CO)C(O)CCC2(C)C1CC=C1C(=O)OCC1Oc1cccnc1[N+](=O)[O-] (stereo not drawn) [6b15, (14β)-(2′-Nitro-pyridinyl-3′-oxy)andrographolide]	–	29.3 ± 2.1 µM	(14) %	–	inhibition rate (%) SA (S. aureus; [1]): (41) %
C=C1CCC2C(C)(CO)C(O)CCC2(C)C1CC=C1C(=O)OCC1Oc1ccnc2ccccc12 (stereo not drawn) [6b16, (14β)-(Quinolyl-4′-oxy)andrographolide]	/ (“/”represents no inhibition or lower than 10% inhibition rate at 250 μM of tested compound)	58.5 ± 4.2 µM	–	–	inhibition rate SA (symbol /) (S. aureus): / (“/”represents no inhibition or lower than 10% inhibition rate at 250 μM of tested compound)
C=C1CC[C@H]2[C@@](C)(CCC(=O)[C@@]2(C)CO[Si](C)(C)C(C)(C)C)[C@@H]1C/C=C1/C(=O)OC[C@@H]1Oc1cccc2cccnc12 [8b2, (14β)-(quinolyl-8′-oxy)-3-keto-19-(t-butyldimethylsilyloxy)andrographolide]	–	–	–	–	inhibition at 250 µM (S. aureus; Staphylococcus aureus, at 250 μM of the tested compound, read-out: inhibition rate (%) SA): 28%; inhibition at 250 µM (E. coli; Escherichia coli, at 250 μM of the tested compound, read-out: inhibition rate (%) EC): 25%; inhibition at 250 µM (E. faecalis; Enterococcus faecalis, at 250 μM of the tested compound, read-out: inhibition rate (%) EF): 71%
O=C(O)c1cn(C2CC2)c2cc(N3CCNCC3)c(F)cc2c1=O [Ciprofloxacin, reference compound]	–	–	–	–	IC50 (S. aureus; Staphylococcus aureus, 24 h, IC50 generated when inhibition at 250 μM was higher than 80%): 0.4 ± 0.06 µM; IC50 (E. coli; Escherichia coli, 24 h, IC50 generated when inhibition at 250 μM was higher than 80%): 0.31 ± 0.06 µM; IC50 (E. faecalis; Enterococcus faecalis): 2.3 ± 0.6 µM
(14α)-(2′-Carboxy ethyl ester-4′-nitro)phenoxy-andrographolide [6a1]	/ (“/”represents no inhibition or lower than 10% inhibition rate at 250 μM of tested compound)	72.2 ± 9.2 µM	–	(10) %	–
(14α)-(2′-Fluoro-4′-nitro)phenoxy-3,19-acetonylidene andrographolide [5a2]	–	56.7 ± 6.5 µM	(20) %	(20) %	–
(14β)-(2′-Carboxy ethyl ester)phenoxy-3,19-acetonylidene andrographolide [5b8]	/ (“/”represents no inhibition or lower than 10% inhibition rate at 250 μM of tested compound)	–	–	–	inhibition rate SA (symbol /) (S. aureus): / (“/”represents no inhibition or lower than 10% inhibition rate at 250 μM of tested compound); inhibition rate (%) EF (E. faecalis; [2]): (22) %
(14β)-(2′-Carboxy ethyl ester-4′-nitro)phenoxy-andrographolide [6b1]	–	27.7 ± 3.5 µM	(17) %	(40) %	–
(14β)-(2′-Nitro)phenoxy-3,19-acetonylidene andrographolide [5b6]	/ (“/”represents no inhibition or lower than 10% inhibition rate at 250 μM of tested compound)	–	–	–	inhibition rate SA (symbol /) (S. aureus): / (“/”represents no inhibition or lower than 10% inhibition rate at 250 μM of tested compound); inhibition rate (%) EF (E. faecalis; [2]): 43%
(14β)-(3′-Fluoro-4′-nitro)phenoxy-3,19-acetonylidene andrographolide [5b4]	–	–	(19) %	(15) %	inhibition rate (%) EF (E. faecalis; [2]): (73) %
(14β)-(4′-Carboxy ethyl ester)phenoxy-3,19-acetonylidene andrographolide [5b9]	/ (“/”represents no inhibition or lower than 10% inhibition rate at 250 μM of tested compound)	–	–	(15) %	inhibition rate (%) EF (E. faecalis; [2]): (42) %
(14β)-(4′-Cyano)phenoxy-3,19-acetonylidene andrographolide [5b10]	–	–	(20) %	(22) %	inhibition rate (%) EF (E. faecalis; [2]): (46) %
(14β)-(Quinolyl-4′-oxy)-3,19-acetonylidene andrographolide [5b16]	/ (“/”represents no inhibition or lower than 10% inhibition rate at 250 μM of tested compound)	15.5 ± 4.2 µM	–	–	inhibition rate SA (symbol /) (S. aureus): / (“/”represents no inhibition or lower than 10% inhibition rate at 250 μM of tested compound)
